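96-well plates; 48 h exposure; 5 concentrations. Endpoints by linear interpolation between flanking doses. Not reached: highest tested concentration assigned. At the GI50, growth is halved.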 Active and inactive are the calls of the source. Cut-off read from the data, not from the text of the source: active = GI50 up to about 1.1 µM and inactive = higher.
Columns and labels:
Test in all cases: inhibition of tumour cell growth, NCI panel, 48 h
RXF 631 = system: RXF 631
SNB-78 = system: SNB-78
DMS-114 = system: DMS-114
DMS-273 = system: DMS-273
KM-20L2 = system: KM-20L2
XF498 = system: XF498
DLD-1 = system: DLD-1
M19-MEL = system: M19-MEL
LXFL 529 = system: LXFL 529

SMILES	GI50 (RXF 631)	GI50 (SNB-78)	GI50 (DMS-114)	GI50 (DMS-273)	GI50 (KM-20L2)	GI50 (XF498)	GI50 (DLD-1)	GI50 (M19-MEL)	GI50 (LXFL 529)
CCOC(=O)c1ccc(O)cc1 [ETHYLPARABEN]	> 100 µM (inactive)	> 100 µM (inactive)	> 100 µM (inactive)	55.5 µM (inactive)	> 100 µM (inactive)	> 100 µM (inactive)	> 100 µM (inactive)	> 100 µM (inactive)	–
COc1ccc(-c2ccc(CC(=O)O)cc2)cc1OC	–	> 100 µM (inactive)	> 100 µM (inactive)	–	> 100 µM (inactive)	20.7 µM (inactive)	> 100 µM (inactive)	> 100 µM (inactive)	> 100 µM (inactive)
ClC1CCC2OOC1O2 (configuration not stated)	–	> 100 µM (inactive)	43.7 µM (inactive)	> 100 µM (inactive)	> 100 µM (inactive)	–	–	> 100 µM (inactive)	–
O=C(O)CSc1ccc2nc3ccccc3c(O)c2c1	–	–	> 100 µM (inactive)	> 100 µM (inactive)	> 100 µM (inactive)	–	> 100 µM (inactive)	> 100 µM (inactive)	> 100 µM (inactive)
CCC1CN2CCC3(c4ccccc4)CC(C(=O)OC)=CC1C23 (configuration not stated)	15 µM (inactive)	19.3 µM (inactive)	–	–	16.3 µM (inactive)	0.183 µM (active)	17.2 µM (inactive)	17.1 µM (inactive)	15.4 µM (inactive)
COc1cc2c(cc1OC)C(=O)Cc1ccc3c(c1CNCC2)OCO3	–	> 100 µM (inactive)	> 100 µM (inactive)	–	> 100 µM (inactive)	> 100 µM (inactive)	> 100 µM (inactive)	> 100 µM (inactive)	> 100 µM (inactive)
CC(=O)O[C@]1(C(C)=O)CC[C@H]2[C@@H]3C[C@H](C)C4=CC(=O)C=C[C@]4(C)[C@@]3(F)[C@@H](O)C[C@@]21C [FLUOROMETHOLONE ACETATE]	–	72.6 µM (inactive)	53.6 µM (inactive)	41.7 µM (inactive)	> 100 µM (inactive)	38.3 µM (inactive)	94.6 µM (inactive)	> 100 µM (inactive)	–
O=C(/C=C/c1c(O)ccc2ccccc12)c1cccc2ccccc12	–	> 100 µM (inactive)	> 59.7 µM (inactive)	> 100 µM (inactive)	> 100 µM (inactive)	> 100 µM (inactive)	> 79.4 µM (inactive)	26.1 µM (inactive)	> 83.6 µM (inactive)
CC1=C[C@]2(O)C(=O)[C@H](C)C[C@H]3[C@@H](CC[C@@](C)(O)/C=C\2C1=O)C3(C)C	31.1 µM (inactive)	26.2 µM (inactive)	22.6 µM (inactive)	22.4 µM (inactive)	14.5 µM (inactive)	16.3 µM (inactive)	17.5 µM (inactive)	18.5 µM (inactive)	16.8 µM (inactive)
COc1cccc2c1C(=O)c1c(O)c3c(c(O)c1C2=O)C[C@@](O)(C(C)=O)CC3S(=O)(=O)O (some centres not stated)	> 100 µM (inactive)	> 94.2 µM (inactive)	> 100 µM (inactive)	> 100 µM (inactive)	> 100 µM (inactive)	> 100 µM (inactive)	> 100 µM (inactive)	> 100 µM (inactive)	> 100 µM (inactive)
CCCCCCCCCCCCCCCCCCC1=C(O)C(=O)C=C(OC)C1=O	–	71.9 µM (inactive)	21.7 µM (inactive)	55.2 µM (inactive)	42.9 µM (inactive)	> 100 µM (inactive)	47.3 µM (inactive)	39.1 µM (inactive)	29.6 µM (inactive)
CC1=NN(C(=O)Cc2ccccc2)C(=O)/C1=C\c1ccco1	–	> 100 µM (inactive)	> 100 µM (inactive)	> 100 µM (inactive)	–	> 100 µM (inactive)	> 100 µM (inactive)	> 100 µM (inactive)	–
O=C1c2ccccc2C(=O)C1(O)c1c[nH]c2ccccc12	> 100 µM (inactive)	> 100 µM (inactive)	> 100 µM (inactive)	–	> 100 µM (inactive)	> 100 µM (inactive)	> 100 µM (inactive)	> 100 µM (inactive)	> 100 µM (inactive)
COc1ccc2c(c1)[n+]([O-])c(/C(C)=N/NC(N)=S)c(C)[n+]2[O-]	44.4 µM (inactive)	> 100 µM (inactive)	36 µM (inactive)	–	39.4 µM (inactive)	39 µM (inactive)	57.9 µM (inactive)	86.9 µM (inactive)	51.6 µM (inactive)
CCOC(=O)C(CC(C)C)NC(=O)C(Cc1ccc(N(CCCl)CCCl)cc1)NC(C)=O (configuration not stated)	–	3.93 µM (inactive)	0.849 µM (active)	4.47 µM (inactive)	20 µM (inactive)	0.406 µM (active)	–	3.84 µM (inactive)	12.4 µM (inactive)
Cc1ccc2[nH]c3c(C)c4cc[n+](C)cc4c(C)c3c2c1	–	0.787 µM (active)	0.61 µM (active)	2.33 µM (inactive)	3.96 µM (inactive)	–	1.67 µM (inactive)	–	0.743 µM (active)

SMILES	GI50 (RXF 631)	GI50 (SNB-78)	GI50 (DMS-114)	GI50 (DMS-273)	GI50 (KM-20L2)	GI50 (XF498)	GI50 (DLD-1)	GI50 (M19-MEL)	GI50 (LXFL 529)
CN(C)c1ccc(/C=C/C(=O)C(C)(C)C)cc1Br	–	44.2 µM (inactive)	18.5 µM (inactive)	–	25.6 µM (inactive)	15 µM (inactive)	18.7 µM (inactive)	19.8 µM (inactive)	30 µM (inactive)
NCCSc1nc(N)c2ncn(C3OC(CO)C(O)C3O)c2n1 (configuration not stated)	–	> 100 µM (inactive)	> 100 µM (inactive)	> 100 µM (inactive)	> 100 µM (inactive)	> 100 µM (inactive)	> 100 µM (inactive)	> 100 µM (inactive)	–
Cc1cc(C)nc(NS(=O)(=O)c2ccc(Nc3c4ccccc4nc4c(C(=O)Nc5ccc(S(=O)(=O)Nc6cc(C)on6)cc5)cccc34)cc2)n1	–	30.9 µM (inactive)	19.1 µM (inactive)	23.8 µM (inactive)	21 µM (inactive)	22.5 µM (inactive)	28.1 µM (inactive)	23.4 µM (inactive)	17.9 µM (inactive)
NC1=NN(c2ccccc2)C(=O)C1C(=O)C(=O)Nc1ccc(Cl)cc1 (configuration not stated)	> 100 µM (inactive)	> 100 µM (inactive)	> 100 µM (inactive)	> 100 µM (inactive)	> 100 µM (inactive)	–	> 100 µM (inactive)	> 100 µM (inactive)	> 100 µM (inactive)
CC(C)c1cccc(C(C)C)c1NC(=O)C(=O)C1CCC2=C(Sc3ccccc3N2)C1=O (configuration not stated)	4.18 µM (inactive)	> 100 µM (inactive)	52.8 µM (inactive)	40.5 µM (inactive)	86.3 µM (inactive)	–	> 100 µM (inactive)	> 100 µM (inactive)	44.2 µM (inactive)
COCCOCOC(CCCCO)c1cc(C)c(O[Si](C)(C)C(C)(C)C)c(C)c1 (configuration not stated)	–	–	2.47 µM (inactive)	–	4.72 µM (inactive)	–	–	5.11 µM (inactive)	10.4 µM (inactive)
COc1ccccc1/N=N/c1c(-c2ccccc2)nn(C(=O)CC(=O)Nc2ccccc2Cl)c1-c1ccccc1	–	> 100 µM (inactive)	> 100 µM (inactive)	> 100 µM (inactive)	> 100 µM (inactive)	> 100 µM (inactive)	> 100 µM (inactive)	> 100 µM (inactive)	> 100 µM (inactive)
CC(C)[C@@H](C)CC[C@@H](C)C1CC=C2[C@@H]3CCC4C[C@@H](O[Si](C)(C)C(C)(C)C)CC[C@]4(C)C3CC[C@@]21C (some centres not stated)	> 100 µM (inactive)	> 100 µM (inactive)	> 100 µM (inactive)	> 100 µM (inactive)	> 100 µM (inactive)	–	–	> 100 µM (inactive)	> 100 µM (inactive)
NNC(=O)/C(NC(=O)c1ccccc1)=C(\N)c1cccc([N+](=O)[O-])c1	> 100 µM (inactive)	> 100 µM (inactive)	> 100 µM (inactive)	> 100 µM (inactive)	–	> 100 µM (inactive)	> 100 µM (inactive)	> 100 µM (inactive)	> 100 µM (inactive)
N#CC1(C#N)C(C#N)(C#N)C12CCCCCC2	–	13.3 µM (inactive)	21.1 µM (inactive)	22.4 µM (inactive)	16.6 µM (inactive)	–	4.1 µM (inactive)	20.5 µM (inactive)	15.2 µM (inactive)
CC1=C(C(=O)Nc2cccc(Cl)c2)C(c2ccccc2F)C(C(=O)Nc2cccc(Cl)c2)=C(C)N1	10.1 µM (inactive)	18.7 µM (inactive)	6.32 µM (inactive)	11.9 µM (inactive)	7.46 µM (inactive)	–	10.4 µM (inactive)	11.6 µM (inactive)	8.11 µM (inactive)
Cc1ccc(N2C(=O)C(=CN)C(=O)N(c3ccc(C)cc3)C2=O)cc1	> 100 µM (inactive)	> 100 µM (inactive)	–	> 100 µM (inactive)	> 100 µM (inactive)	–	46.8 µM (inactive)	> 100 µM (inactive)	> 100 µM (inactive)
N#CC1=C(N)n2c(s/c(=C\c3ccc(Cl)cc3)c2=O)=C(c2nc3ccccc3[nH]2)C1c1ccc(Cl)cc1 (configuration not stated)	–	–	1.99 µM (inactive)	2.12 µM (inactive)	2.21 µM (inactive)	1.63 µM (inactive)	3.65 µM (inactive)	3.04 µM (inactive)	1.9 µM (inactive)
CC1=CCC2(C#N)CCC1C2O (configuration not stated)	–	> 100 µM (inactive)	> 100 µM (inactive)	19.7 µM (inactive)	39.4 µM (inactive)	> 100 µM (inactive)	> 100 µM (inactive)	> 100 µM (inactive)	> 100 µM (inactive)
C=CCCC(=O)CC(=O)OCc1ccccc1	> 100 µM (inactive)	> 100 µM (inactive)	> 100 µM (inactive)	> 100 µM (inactive)	> 100 µM (inactive)	> 100 µM (inactive)	> 100 µM (inactive)	> 100 µM (inactive)	> 100 µM (inactive)

— ChEMBL document CHEMBL1201862, “PubChem BioAssay data set” (2004)
